Assays:
[1] = system: shed/soluble BCMA; assay: GSI inhibition of shed/soluble BCMA (sBCMA), ELISA of supernatants, 72 hours, serial dilutions (Example 2, FIG. 8, Table 3); assay type: cell-based, human; conditions: inhibition of BCMA shedding / enhancement of membrane BCMA
Method: Target human cancer cell lines expressing various levels of human BCMA (NCI-H929^[High], MM1S^[Med], U266B1^[low]) were all transduced to constitutively express luciferase, which is used to measure cell viability/survival with the BrightGlo reagent (Promega E2650). Target cells were plated 30,000 cells per well in a 96 well plate (Costar 3904) together with serial dilutions of a panel of gamma secretase inhibitors (Table 2). The plate was incubated at 37° C./5% CO2 for 72 hours, followed by measurements of cell viability (BrightGlo, Promega # E2650) according to vendor protocol. In a replicate set of assay plates, cell culture supernatants were collected by centrifugation and quantified for levels of soluble BCMA by ELISA (R&D Systems, DY193), and the remaining cells were stained with a PE conjugated BCMA antibody (clone 19F2, Biolegend 357504) and analyzed by flow cytometry for BCMA cell surface expression levels.
Raw OD450 values from the BCMA ELISA were plotted together with the mean fluorescent intensity values from flow cytometry analysis of cells stained with anti-BCMA antibody, and are shown for MM1S cells treated with the various GSIs in FIG. 8. Table 3 summarizes the EC50 results of all the GSIs on the three BCMA-expressing cell lines.

[2] = system: BCMA cell surface expression; assay: BCMA cell surface expression by flow cytometry (PE conjugated BCMA antibody) with or without GSI treatment (Example 1, FIG. 2); assay type: cell-based, human; conditions: BCMA-expressing multiple myeloma cell lines
Method: BCMA expressing cell lines were also treated overnight with and without GSIs. Cell culture supernatants were collected and quantified for levels of soluble BCMA by ELISA (R&D Systems, # DY193). Additionally, remaining cells were pelleted, stained with a PE conjugated BCMA antibody (clone 19F2, Biolegend #357504) and analyzed by flow cytometry for BCMA cell surface expression levels.
BCMA cell surface expression level was determined by flow cytometry on cell lines with or without GSI treatment.

| Compound | efficacious concentrations among the panel of GSIs (rank of potency) [1] | cell surface expression of BCMA [2] |
| --- | --- | --- |
| C[C@H](c1ccc(F)cc1CCCC(=O)O)N(c1cc(F)ccc1F)S(=O)(=O)c1ccc(Cl)cc1 [BMS-299897] | least | – |
| C[C@H](NC(=O)Cc1cc(F)cc(F)c1)C(=O)N[C@H](C(=O)OC(C)(C)C)c1ccccc1 [DAPT] | – | strongly enhances |
| C[C@H](NC(=O)[C@@H](O)c1cc(F)cc(F)c1)C(=O)N[C@@H]1C(=O)N(C)c2ccccc2-c2ccccc21 [LY-411575, (S)-2-((S)-2-(3,5-difluorophenyl)-2-hydroxyacetamido)-N—((S)-5-methyl-6-oxo-6,7-dihydro-5H-dibenzo[b,d]azepin-7-yl)propanamide] | most potent | strongly enhances |

— patent US20200179511A1, “BCMA-TARGETING AGENT, AND COMBINATION THERAPY WITH A GAMMA SECRETASE INHIBITOR” (Novartis AG, priority 2017, published 2020)
